From PubChem BioAssay (NCI) come the findings set out here.

Values joined by “and” are separate entries in the source; they are usually repeats but may differ in a detail not shown here. Equal values may be shown once.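 Protocol summary: plate cells (96-well), add compound at 5 concentrations, incubate 48 h, interpolate endpoints linearly. GI50: concentration for 50% inhibition of growth. TGI marks complete inhibition of growth.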

Among the test systems are CAKI-1 renal; CCRF-CEM leukemia; EKVX NSCLC; HCC-2998 colon; LOX IMVI melanoma; NCI-H226 lung; NCI-H23 lung; OVCAR-8 ovarian; SF-268 CNS; SF-295 CNS; SK-MEL-2 melanoma; SN12C renal; TK-10 renal; UACC-62 melanoma; SNB-75 CNS; MCF7 breast.
Assay in all cases: NCI-60 cell line screen, 48 h

As to `COC(=O)CC(C(C(C)=O)C(=O)OCc1ccccc1)N1C(=O)OC(c2ccccc2)C1c1ccccc1` (centres undefined), the TGI was over 100 µM in the assay with CAKI-1 renal; over 100 µM in the assay on CCRF-CEM leukemia; over 100 µM in the assay on EKVX NSCLC; over 100 µM with HCC-2998 colon; over 100 µM with LOX IMVI melanoma; 80.7 µM and > 100 µM with NCI-H226 lung. For the same compound, the TGI was over 100 µM with NCI-H23 lung; over 100 µM with OVCAR-8 ovarian; over 100 µM in the assay on SF-268 CNS; 75.4 µM and > 100 µM with SF-295 CNS; over 100 µM with SK-MEL-2 melanoma; over 100 µM in the assay with SN12C renal. For the same compound, the TGI in the assay with TK-10 renal and in the assay with UACC-62 melanoma was over 100 µM throughout. The GI50 in the assay with NCI-H226 lung was 12.2 µM and 77.5 µM.

On to `O=C(NCc1ccc2ccc3cccnc3c2n1)c1ccc[n+](Cc2ccccc2)c1`, for which the TGI in the assay with CCRF-CEM leukemia, in the assay on EKVX NSCLC, with HCC-2998 colon, with LOX IMVI melanoma, with NCI-H226 lung and in the assay with NCI-H23 lung was over 100 µM each time. Also, the TGI in the assay with OVCAR-8 ovarian, in the assay on SF-268 CNS, in the assay on SF-295 CNS, in the assay with SK-MEL-2 melanoma, in the assay with SN12C renal and in the assay on SNB-75 CNS was over 100 µM in each case. Further, the TGI in the assay on TK-10 renal and in the assay on UACC-62 melanoma was over 100 µM each time.

Consider `COC(=O)/C(=C/c1ccc(OC)cc1)C(C(=O)O)=C1CCCCC1`, for which the TGI in the assay with CAKI-1 renal, with CCRF-CEM leukemia, with EKVX NSCLC, with LOX IMVI melanoma, in the assay on NCI-H226 lung and in the assay on NCI-H23 lung was over 100 µM each time. For the same compound, the TGI with OVCAR-8 ovarian, with SF-295 CNS, in the assay on SK-MEL-2 melanoma, with SN12C renal, with SNB-75 CNS and with TK-10 renal was over 100 µM throughout. Moreover, in the assay on UACC-62 melanoma, the TGI is over 100 µM.

As to `CCCCCCCCCC(=O)NC(Cc1ccc(O)cc1)C(=O)NCCCNCCCCNCCCNC(=O)[C@@H](N)CCCN=C(N)N` (some centres undefined), the TGI with CCRF-CEM leukemia, with EKVX NSCLC, in the assay on HCC-2998 colon, in the assay with LOX IMVI melanoma, in the assay with NCI-H226 lung and in the assay with NCI-H23 lung was over 100 µM each time. In addition, the TGI is over 100 µM in the assay on OVCAR-8 ovarian; over 100 µM with SF-268 CNS; 85.6 µM in the assay with SF-295 CNS; over 100 µM in the assay on SN12C renal; over 100 µM in the assay on TK-10 renal.

As for `CC12CCC(CC1(Cl)Cl)C2` (centres undefined), the TGI in the assay on CAKI-1 renal, in the assay on CCRF-CEM leukemia, with EKVX NSCLC, in the assay with LOX IMVI melanoma, in the assay on MCF7 breast and with NCI-H226 lung was over 100 µM in each case. Besides, the TGI in the assay on NCI-H23 lung, with OVCAR-8 ovarian, in the assay with SF-268 CNS, in the assay with SF-295 CNS, in the assay on SK-MEL-2 melanoma and in the assay with SN12C renal was over 100 µM each time. For the same compound, the TGI with SNB-75 CNS, in the assay on TK-10 renal and in the assay on UACC-62 melanoma was over 100 µM each time.

For `O/N=C\C(=Nc1ccc(Cc2ccc(N=C(/C=N\O)NO)cc2)cc1)NO`, the TGI in the assay on CAKI-1 renal is 69.2 µM; with CCRF-CEM leukemia, over 100 µM; in the assay with EKVX NSCLC, over 100 µM; in the assay on HCC-2998 colon it was over 100 µM; in the assay on LOX IMVI melanoma, over 100 µM; in the assay on NCI-H226 lung it was over 100 µM. Also, the TGI in the assay on NCI-H23 lung, in the assay with OVCAR-8 ovarian, with SF-268 CNS, in the assay on SF-295 CNS, in the assay on SK-MEL-2 melanoma and in the assay on SN12C renal was over 100 µM each time. For the same compound, the TGI in the assay on TK-10 renal and in the assay on UACC-62 melanoma was over 100 µM in each case.

On to `COc1ccc(/C(Cl)=C(\C=O)c2ccc(Cl)cc2)cc1OC`, for which the TGI with CAKI-1 renal is 49.2 µM; in the assay on CCRF-CEM leukemia it was 10.3 µM; in the assay on EKVX NSCLC, over 100 µM; with HCC-2998 colon it was 76.2 µM; with LOX IMVI melanoma, 14.5 µM; in the assay on NCI-H226 lung, 36.6 µM. In addition, the TGI with NCI-H23 lung was 8.36 µM; in the assay on OVCAR-8 ovarian, 28.6 µM; in the assay on SF-268 CNS, over 100 µM; in the assay on SF-295 CNS, 14.4 µM; with SK-MEL-2 melanoma, 57.2 µM; with SN12C renal it was 16.6 µM. The TGI with SNB-75 CNS was 11.5 µM; in the assay with TK-10 renal, 31.1 µM; in the assay on UACC-62 melanoma, 39.9 µM.

Regarding `O=C(O)c1ccc(Nc2nc3nn(Cc4ccccc4)cc3c(=O)s2)cc1`, the TGI in the assay with CCRF-CEM leukemia, in the assay on EKVX NSCLC, with HCC-2998 colon, with LOX IMVI melanoma, with NCI-H23 lung and with OVCAR-8 ovarian was over 100 µM throughout. The TGI with SF-268 CNS, in the assay with SF-295 CNS, with SK-MEL-2 melanoma, with SN12C renal and in the assay on TK-10 renal was over 100 µM in each case.

`CC[n+]1c(/C=C/c2ccc(N(CCCl)CCCl)cc2)ccc2cc(I)ccc21`: the TGI is 6.19 µM with CAKI-1 renal; 12 µM in the assay with EKVX NSCLC; 2.58 µM in the assay on HCC-2998 colon; 2.85 µM in the assay on LOX IMVI melanoma; 5.63 µM with NCI-H226 lung; 23.5 µM in the assay on NCI-H23 lung. The TGI with SF-295 CNS is 5.76 µM; in the assay with SK-MEL-2 melanoma it was 1.39 µM; with SN12C renal it was 2.71 µM; with SNB-75 CNS, 0.903 µM; in the assay on TK-10 renal, 9.04 µM; in the assay with UACC-62 melanoma it was 1.68 µM.

For the compound `Cc1nc(Nc2ccc(Cl)c(Cl)c2)sc1C(=O)/C=C/c1ccc2c(c1)OCO2`, the TGI was 32.6 µM with CAKI-1 renal; over 100 µM in the assay with CCRF-CEM leukemia; 87.2 µM in the assay on EKVX NSCLC; 88.1 µM with HCC-2998 colon; 35.3 µM in the assay with LOX IMVI melanoma; over 100 µM in the assay with MCF7 breast. Also, the TGI in the assay with NCI-H226 lung was 62 µM; in the assay on NCI-H23 lung, 49.5 µM; in the assay on OVCAR-8 ovarian, 49.6 µM; in the assay with SF-268 CNS, 64 µM; in the assay on SF-295 CNS it was 45.6 µM; in the assay with SNB-75 CNS, 31.4 µM. The TGI is 53.6 µM in the assay on TK-10 renal and over 100 µM in the assay with UACC-62 melanoma.
